Measured values as given in patent US11214803B2, “Modulators of YAP1 expression” (Ionis Pharmaceuticals, Inc., priority 2019, dated 2022).
Strand notation (5' to 3'): a small letter for the sugar, then the base; units joined by * are phosphorothioate-linked, units joined directly phosphodiester-linked; [ ] holds rarer units or linkages, { } end groups; capitals alone tell only the bases. k = constrained ethyl (cEt); [5mC] = 5-methylcytosine; d = 2'-deoxy (DNA)

tested on: Yap1 mRNA; assay: Antisense inhibition of human Yap1 in A-431 cells by cEt gapmers, single dose (Example 4, RTS4814); format: cell-based; conditions: Table 14; A-431 cells, 5,000 cells per well, free uptake, 2,000 nM, approximately 48 hours; RTS4814; normalized to RIBOGREEN; Yap1 mRNA relative to untreated control; * = targets amplicon region of primer probe set
Summary of the method: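 A-431 cells took up 3-10-3 cEt gapmers (16-mer, full phosphorothioate, 5-methylcytosines) by free uptake at 2,000 nM for about 48 h. Yap1 mRNA was quantified by qRT-PCR, normalized to total RNA (RIBOGREEN), and reported as % of untreated control.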

Compared with “1074848 (kG*kT*kT*dA*dT*dG*dA*dT*dA*dG*dG*d[5mC]*dA*k[5mC]*kA*k[5mC]; antisense) [Compound 1074848]”, “1076384 (kT*kA*kT*dA*dA*dG*dG*dG*dA*d[5mC]*dT*dT*dG*k[5mC]*kT*kG; antisense) [Compound 1076384]” is higher in “YAP1 (% UTC)” value: 11 % UTC for the first, 25 % UTC for the second.

Compared with “1075456 (antisense kT*kT*kA*d[5mC]*dG*dA*dA*dA*dT*dG*dT*dT*dT*kA*kG*kT) [Compound 1075456]”, “1074560 (antisense k[5mC]*k[5mC]*kA*dA*dT*d[5mC]*dG*dA*dG*dA*d[5mC]*dT*dT*kA*kA*kA) [Compound 1074560]” is lower in “YAP1 (% UTC)” value: 61 % UTC for the first, 3 % UTC for the second.

Compared with “1074336 (antisense k[5mC]*k[5mC]*kA*dG*dT*dG*dT*dT*dG*dG*dT*dA*dA*k[5mC]*kT*kG) [Compound 1074336]”, “1075840 (k[5mC]*k[5mC]*kT*dA*dA*dA*dA*dT*dA*dG*dG*dA*dA*kT*kG*k[5mC]; antisense) [Compound 1075840]” is lower in “YAP1 (% UTC)” value: 97 % UTC for the first, 89 % UTC for the second.

In the case of “1074816 (kG*kA*kA*dT*dA*dT*dT*dG*d[5mC]*d[5mC]*dA*d[5mC]*d[5mC]*k[5mC]*kA*k[5mC]; antisense) [Compound 1074816]”, the “YAP1 (% UTC)” value is reported as 15 % UTC.

In the case of “1074432 (antisense kG*kT*kT*dA*dA*dA*dA*dT*dG*dA*dT*dT*dG*kG*kT*kG) [Compound 1074432]”, the “YAP1 (% UTC)” value is reported as 3* % UTC.

same assay, conditions: Table 15; A-431 cells, 5,000 cells per well, free uptake, 2,000 nM, approximately 48 hours; RTS4814; normalized to RIBOGREEN; Yap1 mRNA relative to untreated control; * = targets amplicon region of primer probe set

First: 1074209 (antisense k[5mC]*k[5mC]*kG*dG*dA*dG*d[5mC]*d[5mC]*dT*d[5mC]*dA*dT*dG*kG*kG*k[5mC]) [Compound 1074209]
Second: 1074625 (antisense kA*kT*kA*dA*dG*dG*dG*d[5mC]*dT*dT*dA*dT*dT*k[5mC]*kT*kA) [Compound 1074625]
The “YAP1 (% UTC)” value of the first is higher: 72 % UTC for the first, 42 % UTC for the second.

Going from “1075329 (kA*kG*kG*dG*dA*dA*dA*dA*d[5mC]*dT*dT*dT*dG*k[5mC]*kA*k[5mC]; antisense) [Compound 1075329]” to “1075873 (k[5mC]*kT*kT*dG*dA*dA*dT*dA*d[5mC]*dT*dA*d[5mC]*dA*k[5mC]*k[5mC]*kA; antisense) [Compound 1075873]”, the “YAP1 (% UTC)” value falls from 26 % UTC to 16 % UTC.

First: 1075649 (k[5mC]*kT*kT*d[5mC]*dA*dA*dT*dA*dA*dA*dG*dT*dG*kG*kG*kA; antisense) [Compound 1075649]
Second: 1076353 (kA*kT*kT*dA*dA*dA*d[5mC]*dA*dT*dT*d[5mC]*dG*dG*kA*kT*kT; antisense) [Compound 1076353]
The “YAP1 (% UTC)” value of the first is higher: 56 % UTC for the first, 30 % UTC for the second.

Compared with “1074721 (antisense kG*kG*kA*dA*dG*dA*dT*d[5mC]*dT*d[5mC]*d[5mC]*dA*dT*kA*kT*kT) [Compound 1074721]”, “1074241 (antisense kG*kA*kT*dG*dT*d[5mC]*dT*dT*dT*dG*d[5mC]*d[5mC]*dA*kT*k[5mC]*kT) [Compound 1074241]” is higher in “YAP1 (% UTC)” value: 43 % UTC for the first, 72 % UTC for the second.

Going from “1076289 (kA*kA*k[5mC]*dG*dG*dA*d[5mC]*dA*dA*d[5mC]*dT*dT*dA*kA*k[5mC]*kA; antisense) [Compound 1076289]” to “1075041 (antisense kG*kA*kT*dT*dA*dT*dA*dA*dA*dG*dA*dG*dG*k[5mC]*kT*k[5mC]) [Compound 1075041]”, the “YAP1 (% UTC)” value falls from 21 % UTC to 5 % UTC.

same assay, conditions: Table 16; A-431 cells, 5,000 cells per well, free uptake, 2,000 nM, approximately 48 hours; RTS4814; normalized to RIBOGREEN; Yap1 mRNA relative to untreated control cells

Going from “1075650 (kA*kT*kA*dT*dT*dA*d[5mC]*dA*dA*dT*d[5mC]*d[5mC]*d[5mC]*kA*kG*k[5mC]; antisense) [Compound 1075650]” to “1074178 (antisense kG*k[5mC]*k[5mC]*dT*d[5mC]*d[5mC]*d[5mC]*d[5mC]*d[5mC]*dG*dA*d[5mC]*dG*k[5mC]*kG*k[5mC]) [Compound 1074178]”, the “YAP1 (% UTC)” value rises from 48 % UTC to 95 % UTC.

Compared with “1075970 (kG*k[5mC]*kT*dT*dA*dA*dA*dA*dG*dG*dA*d[5mC]*dA*kG*kT*kA; antisense) [Compound 1075970]”, “1076162 (kA*kT*kT*dT*dA*d[5mC]*dT*dT*dG*dG*d[5mC]*dA*dA*k[5mC]*kT*k[5mC]; antisense) [Compound 1076162]” is lower in “YAP1 (% UTC)” value: 34 % UTC for the first, 9 % UTC for the second.

Compared with “1075714 (kA*kA*kT*dT*dA*d[5mC]*dA*dA*dT*d[5mC]*dA*dA*d[5mC]*k[5mC]*kT*kT; antisense) [Compound 1075714]”, “1074274 (antisense kG*kT*kT*d[5mC]*dT*dT*dA*dT*dG*dG*dT*dT*dT*kA*kT*kA) [Compound 1074274]” is lower in “YAP1 (% UTC)” value: 42 % UTC for the first, 4 % UTC for the second.

Going from “1076354 (kG*kA*kT*dT*dA*dA*dA*d[5mC]*dA*dT*dT*d[5mC]*dG*kG*kA*kT; antisense) [Compound 1076354]” to “1076034 (kA*kA*kT*dT*dA*dG*dA*dA*dA*d[5mC]*dT*dT*dG*kG*k[5mC]*k[5mC]; antisense) [Compound 1076034]”, the “YAP1 (% UTC)” value rises from 13 % UTC to 74 % UTC.

In the case of “1075362 (k[5mC]*kA*kG*dG*dA*dA*dA*dA*dA*dT*d[5mC]*dT*dA*kG*kG*kT; antisense) [Compound 1075362]”, the “YAP1 (% UTC)” value is reported as 50 % UTC.

same assay, conditions: Table 17; A-431 cells, 5,000 cells per well, free uptake, 2,000 nM, approximately 48 hours; RTS4814; normalized to RIBOGREEN; Yap1 mRNA relative to untreated control cells

Compared with “1074531 (k[5mC]*kA*k[5mC]*dT*dA*dA*dA*d[5mC]*dT*dA*d[5mC]*dT*dT*k[5mC]*kA*kA; antisense) [Compound 1074531]”, “1075075 (antisense kA*kA*kT*dT*dT*dT*dA*dT*dA*dA*dG*d[5mC]*d[5mC]*k[5mC]*kA*k[5mC]) [Compound 1075075]” is lower in “YAP1 (% UTC)” value: 73 % UTC for the first, 9 % UTC for the second.

Going from “1075011 (antisense kG*k[5mC]*kA*d[5mC]*dA*dA*dT*dA*dA*dT*d[5mC]*dG*dA*kA*k[5mC]*kA) [Compound 1075011]” to “1076387 (kT*kG*kA*d[5mC]*dA*dA*d[5mC]*dA*d[5mC]*dA*dG*dT*dT*kA*kT*kA; antisense) [Compound 1076387]”, the “YAP1 (% UTC)” value falls from 44 % UTC to 13 % UTC.

Compared with “1074115 (antisense kA*kG*kA*dA*d[5mC]*dT*dT*dT*dT*dT*d[5mC]*d[5mC]*d[5mC]*kT*k[5mC]*k[5mC]) [Compound 1074115]”, “1074179 (antisense k[5mC]*kG*kG*dG*dA*dT*d[5mC]*d[5mC]*dA*dT*dG*dG*d[5mC]*kT*kT*k[5mC]) [Compound 1074179]” is higher in “YAP1 (% UTC)” value: 33 % UTC for the first, 49 % UTC for the second.

First: 1076099 (k[5mC]*k[5mC]*kT*d[5mC]*dA*dA*dA*dA*d[5mC]*dT*dT*dG*dG*kA*kT*kT; antisense) [Compound 1076099]
Second: 1075843 (k[5mC]*kA*kT*dG*dA*dA*dA*dT*dG*dA*dT*dG*dG*kA*kA*k[5mC]; antisense) [Compound 1075843]
The “YAP1 (% UTC)” value of the first is lower: 41 % UTC for the first, 47 % UTC for the second.

With “1075907 (kA*kA*kT*dT*dA*d[5mC]*dT*dA*d[5mC]*dT*dG*dG*d[5mC]*k[5mC]*kA*kT; antisense) [Compound 1075907]” the “YAP1 (% UTC)” value was 55 % UTC.

same assay, conditions: Yap1 mRNA remaining as percent of untreated control; 3-10-3 cEt gapmers; A-431 cells; Table 36

Compared with “1075094 (kG*kA*kT*dA*dA*dA*dT*dG*dT*dA*dA*d[5mC]*dT*kA*kG*k[5mC]; antisense) [compound 1075094]”, “1074358 (antisense kT*k[5mC]*kG*dA*dG*dG*dG*dA*d[5mC]*dA*d[5mC]*dT*dG*kT*kA*kG) [compound 1074358]” is higher in “YAP1 (% UTC)” value: 10 % UTC for the first, 17 % UTC for the second.

same assay, conditions: Yap1 mRNA remaining as percent of untreated control; 3-10-3 cEt gapmers; A-431 cells; Table 37

Compared with “1075511 (k[5mC]*kA*kA*dT*dA*dT*dT*dA*dT*d[5mC]*dT*dG*dA*kG*k[5mC]*kT; antisense) [compound 1075511]”, “1074231 (antisense kA*kA*kA*dG*dA*dA*dG*dA*d[5mC]*dT*dG*dT*d[5mC]*kG*kA*kA) [compound 1074231]” is lower in “YAP1 (% UTC)” value: 106 % UTC for the first, 8 % UTC for the second.

First: 1075479 (kG*kA*k[5mC]*dA*dA*dT*dA*dA*dA*dT*d[5mC]*dT*dG*k[5mC]*k[5mC]*kT; antisense) [compound 1075479]
Second: 1074615 (DNA kT*kT*k[5mC]*dA*dT*dA*dG*d[5mC]*dT*dT*dA*dT*dA*kT*kT*kG; antisense) [compound 1074615]
The “YAP1 (% UTC)” value of the first is higher: 77 % UTC for the first, 8 % UTC for the second.

Compared with “1074551 (DNA kA*kA*kT*dA*dT*d[5mC]*dT*dA*d[5mC]*d[5mC]*dG*dT*dA*kT*kG*k[5mC]; antisense) [compound 1074551]”, “1075543 (kA*kT*kA*dT*dA*dT*dT*dA*dG*dG*dA*dG*dT*kT*kT*k[5mC]; antisense) [compound 1075543]” is lower in “YAP1 (% UTC)” value: 58 % UTC for the first, 22 % UTC for the second.

First: 1075351 (antisense kA*kG*kA*dT*dT*dA*dA*dA*dG*d[5mC]*dT*d[5mC]*dA*kT*kT*kG) [compound 1075351]
Second: 1075287 (antisense kT*kA*kT*dT*dA*d[5mC]*dG*dG*dA*d[5mC]*dA*dG*dA*kA*kG*kT) [compound 1075287]
The “YAP1 (% UTC)” value of the first is lower: 38 % UTC for the first, 58 % UTC for the second.

Going from “1074743 (kG*kA*kA*dA*dG*dG*dA*d[5mC]*dT*d[5mC]*dT*dT*dA*kG*kG*kT; antisense) [compound 1074743]” to “1075095 (k[5mC]*kT*kT*dG*dA*dA*dA*dA*d[5mC]*dA*dA*dG*d[5mC]*k[5mC]*kA*k[5mC]; antisense) [compound 1075095]”, the “YAP1 (% UTC)” value rises from 16 % UTC to 63 % UTC.

same assay, conditions: table after Table 37, headed TABLE 32 (gapmers targeting SEQ ID NO.: 3); A-431 cells, free uptake, 2,000 nM, approximately 48 hours, RTS4814

In the case of “1074884 (kG*kG*kG*d[5mC]*dT*dA*dA*d[5mC]*dT*d[5mC]*d[5mC]*dT*dG*k[5mC]*k[5mC]*kG; antisense) [compound 1074884]”, the “YAP1 (% UTC)” value is reported as 110 % UTC.
